Results on ten compounds are retold here after patent US11028073B2, “Butylphthalide-telmisartan hybrids, preparation method and application thereof” (GUANGDONG LONGFU MEDICINE CO., LTD., priority 2017, dated 2021).

The test system of data set [1] is Nrf2. The data set is described as follows: Neh2-Luciferase reporter assay for Nrf2 activation in BV2 cells. Conditions: for activity of intracellular Nrf2 (luciferase): 10 μM, 24 h incubation, BV2 cells. It counts as cell-based. How it is done: BV2 cells were transfected with Neh2-Luciferase reporter gene plasmid for 6 h, replaced a normal serum-containing medium and cultured for 24 h, then incubated with drug for 24 h, and treated with Reporter Lysis Buffer for 20 min. The Reporter Lysis Buffer was added to a 96-well plate, and the activity of luciferase was measured.
In FIGS. 1A and 1B, mouse primary microglia are pre-incubated with 1 μM or 5 μM of test compounds for 3 hours, then stimulated with LPS for 5 hours, and the protein content of pro-inflammatory factor TNF-α is determined by ELISA method. In FIG. 1C, the activations of the compounds on Nrf2 are tested by Luciferase Reporter Assay.
(In general: In a reporter assay the amount or activity of a reporter protein is the signal.)

Data set [2] has as its system rats with tMCAO. The data set is described as follows: Infarct volume (TTC staining) in rats with transient middle cerebral artery occlusion (tMCAO). Format: in vivo, rat. Conditions: administrated at 4 h post-ischemia and again at 24 h, 1 mg/kg (edaravone 3 mg/kg), determined 48 h post-ischemia. On the procedure: (§1) Experimental method: 75 SD male rats weighing 300±20 g were raised under the condition of 25° C. and relative humidity of 60% to 75% for 1 week for experiment. Rats were randomized into 5 groups: sham group, vehicle group, drug administration group at 24 h after ischemia, drug administration group at 6 h after ischemia, drug administration group at 4 h after ischemia, respectively, with 15 animals in each group.
(§2) Establishment of transient middle cerebral artery occlusion (tMCAO) rat model: The rats were anesthetized by intraperitoneal injection of chloral hydrate, and lying on an operating table with limbs fixed with string. […] ECA was ligated and cut off, ICA was clamped at the distal end with an arterial clip, and then a small opening was cut at the intersection of ECA and ICA near the ECA. A nylon thread with paraffin coated on one end was inserted from the small cut opening into the internal carotid artery at the intersection of the internal and external carotid arteries and further into the anterior cerebral artery at the proximal end, to block the blood supply to the middle cerebral artery on this side. At 120 minutes after ischemia, the nylon thread was withdrawn at the incision of the external carotid artery to achieve the reperfusion of the middle cerebral artery. The room temperature during surgery was controlled at 25 to 27° C.
(§3) Administration method: administrating after surgery with a concentration of 1 mg/kg. Drug administration group at 4 h after ischemia was administrated at 4 h after ischemia, and once again after 24 h. Drug administration group at 6 h after ischemia was administrated at 6 h after ischemia, and once again after 24 h. Drug administration group at 24 h after ischemia was administrated once at 24 h after ischemia.
(§4) After the time window for administration of 13 was determined, administration at 4 hour post-ischemia was selected as the subsequent testing time point. 95 SD male rats were randomized into 7 groups: sham group, vehicle group, NBP group, Telm group, NBP+Telm group, 13 group and edaravone group, respectively. The surgical procedure was as described above, NBP (1 mg/kg), Telm (1 mg/kg), NBP (1 mg/kg)+Telm (1 mg/kg), 13 (1 mg/kg) and edaravone (3 mg/kg) were administrated at 4 hour post-ischemia, and once again at 24 h, respectively. The infarct volume and neurobehavioral score were determined at 48 h post-ischemia.
At 48 h post-ischemia, the rats were anesthetized with pentobarbital sodium, decapitated to get brain quickly, olfactory bulb, cerebellum and lower brain stem were removed, and coronal was cut into 6 slices. Then the brain slices were placed in the solution containing 4% TTC and 1 mol/L of K2HPO4, incubated at 37° C. for 30 min in the dark, during which the brain slices were flipped every 7 to 8 min. […] Images were taken after staining, and the infarct volume was calculated using an image analysis software. The percentage of infarct volume is calculated by the following formula: infarct area/total brain cross-sectional area×100%.
(§5) The experimental method was manipulated as described in 2. At 30 min before the administration of I3, rats were intraperitoneally injected with 20 mg/kg of AMPK inhibitor Compound C, and the volume of the ipsilateral hemisphere infarct and the neurobehavioral score were determined at 48 h post-ischemia. Western blot analysis was performed on ischemic brain tissue to determine the content of phosphorylated AMPK (p-AMPK) in the cerebral cortex at the infarct side.
(§6) In FIG. 2, tMCAO models are established in male rats of 260 to 280 g (thread embolism is pulled out from the rats after 2 hour ischemia, resulting in reperfusion), 13 compound (1 mg/kg) is intravenously injected at 4 h post-ischemia, and intravenously injected again at 24 h post-ischemia. […]

In data set [3] the test system is rats with tMCAO. The data set is described as follows: Neurobehavioral function score in tMCAO rats. Format: in vivo, rat. The note with it: tMCAO rats, comparison groups, administrated at 4 h post-ischemia and again at 24 h; 1 mg/kg (edaravone 3 mg/kg); scored 48 h. On the procedure:
as §1, §2, §3, §4
The neurobehavioral function score of tMCAO rats were scored at 48 h after ischemia. Criteria for scoring is as follows: 0 point, no symptoms of nerve damage; 1 point, inability of fully extending forepaw at the healthy side; 2 points, circling to the healthy side; 3 points, tilting toward the healthy side; 4 points, inability of spontaneous walking and losing consciousness.
as §5, §6

Usually melting point stands for the temperature, or range, at which the solid turns liquid. `CCCCC(OC(C)=O)c1ccccc1C(=O)OCCCCOC(=O)c1ccccc1-c1ccc(Cn2c(CCC)nc3c(C)cc(-c4nc5ccccc5n4C)cc32)cc1` (centres unmarked) [I2, 4-O-{2-[(1-acetoxyl)n-pentyl]benzoyl}butanediol telmisartan ester] yielded a melting point of 83 °C.
As for `CCCCC(OC(C)=O)c1ccccc1C(=O)OCCCCCOC(=O)c1ccccc1-c1ccc(Cn2c(CCC)nc3c(C)cc(-c4nc5ccccc5n4C)cc32)cc1` (centres unmarked) [I4, 5-O-{2-[(1-acetoxyl)n-pentyl]benzoyl}pentanediol telmisartan ester], the melting point was 78 to 79 °C.
Still for that read-out and setting: then `CCCCC(OC(C)=O)c1ccccc1C(=O)OCCCCCCOC(=O)c1ccccc1-c1ccc(Cn2c(CCC)nc3c(C)cc(-c4nc5ccccc5n4C)cc32)cc1` (centres unmarked) [I5, 6-O-{2-[(1-acetoxyl)n-pentyl]benzoyl}hexanediol telmisartan ester], with 82 to 83 °C.
`CCCCC(OC(C)=O)c1ccccc1C(=O)OCCCCCCCCOC(=O)c1ccccc1-c1ccc(Cn2c(CCC)nc3c(C)cc(-c4nc5ccccc5n4C)cc32)cc1` (centres unmarked) [I6, 8-O-{2-[(1-acetoxyl)n-pentyl]benzoyl}octanediol telmisartan ester]: the melting point fell in the range of 83 to 84 °C.
Compound `CCCCC(OC(C)=O)c1ccccc1C(=O)NCCCCCCNC(=O)c1ccccc1-c1ccc(Cn2c(CCC)nc3c(C)cc(-c4nc5ccccc5n4C)cc32)cc1` (centres unmarked) [I7, 6-N-{2-[(1-acetoxyl)n-pentyl]benzoyl}hexanediamine telmisartan amide] returned a melting point of 96 to 98 °C. For the same compound, the “activity of intracellular Nrf2 (luciferase)” value in data set [1] is recorded as “significantly activate the activity of intracellular Nrf2”.
In turn, `CCCCC(OC(C)=O)c1ccccc1C(=O)NCCCCNC(=O)c1ccccc1-c1ccc(Cn2c(CCC)nc3c(C)cc(-c4nc5ccccc5n4C)cc32)cc1` (centres unmarked) [I8, 4-N-{2-[(1-acetoxyl)n-pentyl]benzoyl}butanediamine telmisartan amide] gave a melting point of 97 to 99 °C. Also, in data set [1], the “activity of intracellular Nrf2 (luciferase)” value is reported as “significantly activate the activity of intracellular Nrf2”.
The compound `CCCCc1nc(C)c(C(=O)NCCCCCCCCNC(=O)c2ccccc2C(CCCC)OC(C)=O)n1Cc1ccc(-c2ccccc2-c2nnn[nH]2)cc1` (centres unmarked) [I17] came in with a melting point of 197 to 199 °C.
Regarding `CCCCC1OC(=O)c2ccccc21` (centres unmarked) [NBP, Butylphthalide], in data set [2], the “Infarction rate (%)” value was 20.99%. In data set [3], the Neurobehavioral score is 2.7.
On to `Cc1c(-c2cnccn2)ssc1=S` [Oltipraz, reference compound], for which the “activation of Nrf2” value in data set [1] (concentration not given) is “significantly promote the activation of Nrf2”.
With `CCCc1nc2c(C)cc(-c3nc4ccccc4n3C)cc2n1Cc1ccc(-c2ccccc2C(=O)O)cc1` [Telm, Telmisartan], the “Infarction rate (%)” value in data set [2] worked out at 11.57%. In data set [3], this compound showed a Neurobehavioral score of 1.
